The values that follow come from patent US20250312338A1, “TREATMENT OF NEUROLOGICAL DISORDERS” (Praxis Precision Medicines, Inc., priority 2022, published 2025).

One data set relates to male CD-1 mice. The experiment in a line: Spontaneous locomotor activity (sLMA) test.
Data set [1] deals with MES-induced seizures in male CD-1 mice. The data set is described as follows: Maximal electroshock seizure (MES) test. Format: in vivo, mouse. As to the method:
Food and water were available ad libitum.
VPA was prepared in saline (Vehicle 1). All solutions were protected from light. All compounds and vehicles were dosed at 10 ml/kg.
The MES test was carried out over two days with 6 of 12 mice from each treatment group being tested on each day. Mice were brought to the test room at least one hour before the start of the experiment.
A Grass S88x (Grass Technologies of Astro-Med, Inc., West Warwick, RI) Stimulus Isolation Unit (A385, WPI Inc., USA) was set to deliver a 50 mA square-wave stimulus, with a 0.8 second duration, a pulse width of 10 msec, and a frequency of 50 Hz. A pair of custom stainless steel electrodes were soaked in 0.2% Agar, and then the subject received bilateral transauricular stimulation through ear-clip electrodes. During the stimulation, mice were manually restrained. They were then released into the observation cage for convulsion observation for 60 seconds immediately after stimulation. Each mouse was observed continuously by individuals blinded to treatment conditions and results were recorded.
Anti-seizure assessment endpoints were: (1) latency of hindlimb tonic flexion; (2) latency of hindlimb tonic extension; (3) total #hindlimb tonic flexions; (4) total #hindlimb tonic extensions; (5) latency to death; and (6) mortality rate
From these fitted curves, ED50 and EC50 values were calculated.
(In general: The maximal electroshock test induces tonic seizures with an electrical stimulus.)

The next data set can be described thus: in vivo. Particulars: male, CD-1, mouse.
A further data set addresses T1, human NaV1.6 (Homo sapiens, UniProt Q9UQD0).
T1 construct: HEK-293 cell lines stably expressing either human NaV1.6 (NP_055006); expressed in transfected cells
The experiment in a line: Peak INa use dependent block (UDB-10 Hz), PatchXpress patch clamp. Particulars: hNaV1.6. The class given is cell-based.

Data set [2] relates to healthy participants. The data set is described as follows: Phase 1 single/multiple ascending dose and food effect trial, safety and tolerability. The note with it: whole trial. The class given is in vivo, human. As to the method: (§1) This was a 3-part Phase 1 clinical trial in healthy participants aged 18-55 years. Parts A and B were randomized, placebo-controlled and evaluated the effects of single (2.5-150 mg) and multiple (30-120 mg, 14 days QD (every day)) ascending oral doses of Compound 1, respectively. Part C was an open-label, randomized, crossover design evaluating the PK of a single oral dose (90 mg) in fasted and fed states. In Parts A (n=64) and B (n=32), participants were randomized 3:1 to Compound 1 or placebo (n=8/cohort). In Part C (n=16), participants were randomized 1:1 to one of two treatment sequences receiving a single dose of 90 mg Compound 1 in the fed (following a high-fat/high calorie meal) or fasted (>10 hours after the last, and 4 hours before the next, meal) state.

Data set [3] is described as follows: Half-life of Compound 1 as stated in dosing guidance of Example 13. Particulars: human, in vivo.
A short description of data set [4]: Phase 1 28-day trial (Part A 90 mg; Part B OXC + 120 mg), pharmacokinetics.
Description: (§2) This was a 2-part randomized, placebo-controlled Phase 1 trial in healthy participants aged 18-55 years. […] PD effects were examined on quantitative EEG (qEEG; resting and vigilant conditions) and stimulated EEG using auditory steady state response (ASSR). A total of 48 participants were enrolled; Part A, n=30; Part B, n=18.
Data set [5] can be described thus: Open-label study in DEE patients, pharmacokinetics (preliminary data). The class given is in vivo, human. An excerpt: The purpose of this study is to evaluate the safety and tolerability of Compound 1, to assess the effect of Compound 1 on the frequency of motor seizures, and to characterize the pharmacokinetics (PK) of oral suspension Compound 1 in patients with developmental and epileptic encephalopathies (DEE).
This is an open-label proof of concept study with 3 cohorts of DEE patients (SCN2A, SCN8A, and Tuberous Sclerosis Complex (TSC)) between 2 years old and 17 years old. There will be an 8-week screening period followed by a 16-week treatment period comprised of 8-week dose optimization period and 8-week maintenance period, and a 4-week safety follow-up period or roll-over into LTE. The rationale for 16-week treatment period is based on the current knowledge of Compound 1 pharmacokinetics, which is predicted to potentially take about 6 weeks to achieve 90% steady state. The 8-week dose optimization period allows for adjusting concomitant SCBs and the additional 8 weeks will allow for evaluation of tolerability and efficacy signal during the maintenance period.
Dosing will be guided by preclinical data (targeting concentration between EC50 and EC90 from MES model) and modeling from adult PK data, and duration of dose optimization phase will be predicated on adult PK data. During the dose optimization period, the dose adjustment will be as follows. […]

In data set [6] the test system is healthy participants. The experiment in a line: Phase 1 28-day trial (Part A 90 mg; Part B OXC + 120 mg), safety and tolerability. The class given is in vivo, human.
Description: as §2
Data set [7] can be described thus: Phase 1 single/multiple ascending dose and food effect trial, pharmacokinetics. Format: in vivo, human. Particulars: for Tmax: human, plasma. As to the method:
as §1

For data set [8] the following is noted: in vivo.
Description: as §2

Values after ≈ are worked out from the molar mass of the structure shown. “Also recorded” adds a separate entry of the source. Like-named read-outs stand apart in the source and are kept apart here. A value given as a limit tells only on which side of the number the result lay.

T1 sequence (Q9UQD0 whole entry): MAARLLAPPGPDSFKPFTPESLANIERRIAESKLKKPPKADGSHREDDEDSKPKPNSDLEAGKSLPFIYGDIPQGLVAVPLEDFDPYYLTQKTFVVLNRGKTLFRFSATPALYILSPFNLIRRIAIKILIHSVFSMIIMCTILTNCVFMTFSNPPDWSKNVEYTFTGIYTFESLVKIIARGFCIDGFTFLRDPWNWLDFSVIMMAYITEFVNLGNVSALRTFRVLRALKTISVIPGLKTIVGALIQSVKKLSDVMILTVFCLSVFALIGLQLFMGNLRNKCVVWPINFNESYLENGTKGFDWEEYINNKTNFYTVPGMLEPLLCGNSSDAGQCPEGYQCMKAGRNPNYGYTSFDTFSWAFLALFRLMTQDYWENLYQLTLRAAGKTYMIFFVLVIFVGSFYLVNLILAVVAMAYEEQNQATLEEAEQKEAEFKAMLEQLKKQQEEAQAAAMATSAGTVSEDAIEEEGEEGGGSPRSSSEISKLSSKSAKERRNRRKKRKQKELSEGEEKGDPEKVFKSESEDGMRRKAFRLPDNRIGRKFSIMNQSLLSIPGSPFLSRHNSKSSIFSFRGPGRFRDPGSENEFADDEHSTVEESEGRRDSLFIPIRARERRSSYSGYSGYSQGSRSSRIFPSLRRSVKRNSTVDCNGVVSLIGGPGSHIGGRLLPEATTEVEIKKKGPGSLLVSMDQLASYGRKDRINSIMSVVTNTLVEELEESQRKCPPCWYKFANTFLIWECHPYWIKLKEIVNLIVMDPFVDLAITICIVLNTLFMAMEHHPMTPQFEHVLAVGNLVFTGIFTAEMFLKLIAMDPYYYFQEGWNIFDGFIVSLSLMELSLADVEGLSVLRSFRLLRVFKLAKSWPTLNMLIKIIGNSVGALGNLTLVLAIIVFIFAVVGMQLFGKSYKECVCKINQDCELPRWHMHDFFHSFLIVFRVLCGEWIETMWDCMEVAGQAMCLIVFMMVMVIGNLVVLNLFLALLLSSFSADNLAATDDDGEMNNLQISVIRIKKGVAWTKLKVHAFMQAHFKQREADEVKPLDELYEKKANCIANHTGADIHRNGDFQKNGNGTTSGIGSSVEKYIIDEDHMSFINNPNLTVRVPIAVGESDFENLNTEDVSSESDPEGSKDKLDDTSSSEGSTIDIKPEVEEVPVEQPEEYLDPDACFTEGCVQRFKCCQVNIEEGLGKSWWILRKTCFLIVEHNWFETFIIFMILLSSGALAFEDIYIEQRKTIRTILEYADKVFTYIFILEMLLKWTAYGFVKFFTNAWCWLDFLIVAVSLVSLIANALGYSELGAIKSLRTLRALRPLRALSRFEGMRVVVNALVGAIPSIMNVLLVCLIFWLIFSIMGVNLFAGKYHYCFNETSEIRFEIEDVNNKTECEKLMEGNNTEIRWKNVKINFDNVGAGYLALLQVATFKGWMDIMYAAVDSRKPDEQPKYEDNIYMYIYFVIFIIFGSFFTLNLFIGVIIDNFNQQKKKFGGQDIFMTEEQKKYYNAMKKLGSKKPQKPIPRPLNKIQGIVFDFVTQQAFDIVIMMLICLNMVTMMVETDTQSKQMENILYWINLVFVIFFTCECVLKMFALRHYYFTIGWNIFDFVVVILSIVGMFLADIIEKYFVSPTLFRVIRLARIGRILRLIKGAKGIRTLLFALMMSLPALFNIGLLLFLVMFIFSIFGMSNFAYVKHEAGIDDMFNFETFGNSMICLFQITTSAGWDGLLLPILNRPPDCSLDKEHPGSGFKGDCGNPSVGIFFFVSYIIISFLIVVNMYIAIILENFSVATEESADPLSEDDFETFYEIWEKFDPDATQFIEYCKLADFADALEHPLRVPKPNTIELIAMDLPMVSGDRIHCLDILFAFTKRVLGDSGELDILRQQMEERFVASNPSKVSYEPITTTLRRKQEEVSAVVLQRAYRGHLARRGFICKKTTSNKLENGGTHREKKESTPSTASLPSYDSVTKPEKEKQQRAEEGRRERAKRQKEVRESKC
Protocol for in vivo: Male CD-1 mice, 6-weeks old, were obtained from Vital River (Beijing, China). The average body weight was 25-35 g at the time the experiments were carried out. The mice were housed in groups of 3-5 under controlled conditions (temperature: 20-26° C.; humidity: 40-70%; air exchange rate: 10-15 cycles/hour; 12:12 light-dark cycle with lights on at 5:00 a.m.). Food and water were available ad libitum. The mice were acclimated to these conditions for 6 days before the start of the studies.
Dosing solutions were prepared on each experiment day. […] All solutions were protected from light. Samples from dosing solutions were stored at 4° C. Both compound and vehicle were dosed at 10 ml/kg.
The sLMA test was carried out over two days. 5 of 10 mice from each treatment group were tested on each day. All animals were marked on the tail with a permanent marker and weighed. Mice were randomly assigned into one of the four treatment groups. Animals were acclimated to the test room at least 30 minutes before the start of the experiment.
Possible side effects, such as overt sedation, were recorded just before the start of the sLMA test.
Each mouse was automatically tracked with overhead cameras using a 1-minute sampling window in an isolated chamber. Spontaneous locomotor activity was then analyzed offline using the Animal Behavior Video Tracking Analysis System (Ji Liang Software Technology Co., Ltd., Shanghai, China).
Locomotor status was defined as >2 mm of movement in every 200 ms (Frame-rate recorded was 20 frames/second. Locomotor status was identified in every 4 frame-to-frame interval. The accumulated shift of tracking spots that exceeded 2 mm in every 4 frame intervals was identified as a locomotor epoch). Traveling distance was calculated automatically from all the locomotion epochs and analyzed.
All mice were anesthetized with CO2. Then, terminal plasma and brain tissue samples were collected from animals in the drug treatment groups. 500 μL whole blood was collected via cardiac puncture and placed in tubes with 10 μL EDTAK2. The tubes were then placed in wet ice until centrifuged at 2000 g for 5 minutes at 4° C. The supernatant plasma was pipetted into Eppendorf tubes.
Data are presented as mean±s.e.m., and p<0.05 was regarded as statistically significant.
Calculating TD50 and TC50 values Dose-response and concentration-response curves for plasma and brain were fitted for each end-point using GraphPad Prism. From these fitted curves, TD50 and TC50 values were calculated.
Compound 1 and CBZ were prepared individually in 35% HPBCD. […] All solutions were dosed at 10 mL/kg. Just before the start of the sLMA test, possible side effects such as overt sedation were recorde.

On to `NC(=O)N1c2ccccc2C=Cc2ccccc21` [Carbamazepine], for which, in the data set with male CD-1 mice (mouse, in vivo), the “sLMA at the dose required for complete seizure prevention” value is on record as “significant reduction”. In addition, in data set [1] (30 mg/kg), the “mice protected from MES-induced tonic hindlimb seizures” value is given as “all mice”. The molecule also had an EC50 in “in vivo” (in vivo) of 19000 nM. Further, the “use-dependent block of peak INa (in words)” value on human NaV1.6 (frequency increased to 30 Hz or 50 Hz) was “could be observed”; on human NaV1.6 (stimulation frequency 10 Hz), “not observed”.
For `CCOC(F)(F)c1nnc2cnc(-c3cnc(OCC(F)(F)F)c(F)c3)cn12` [Compound 1], the “TEAEs that were mild” value with healthy participants [2] was greater than 92%. The same molecule had a half-life in data set [3] of roughly 96 h. For the same molecule, in data set [4], the “increase in Compound 1 concentrations over the human-equivalent dose required for efficacy in preclinical MES models” value is given as 13 fold. The “approach to steady state” value in [4] (90 mg for 28 days) is reported as “approached steady state”. Also, the “approach to steady state” value in [5] (after 28 days of once daily dosing and auto-titration) is “approaches steady state”. Further, in data set [5] (first 12 DEE participants, preliminary), the “Compound 1 exposures on Day 1 (after single dose)” value was “above therapeutic range; also recorded: above predicted therapeutic levels”. Moreover, the “effect on locomotor function” value in the data set with male CD-1 mice (10 mg/kg) is on record as “no effect”. In addition, the “total traveling distance in the 30-minute sLMA test” value in the data set on male CD-1 mice (20 and 40 mg/kg p.o.) was “significantly reduced; also recorded: reductions”. Also, in the data set on male CD-1 mice (free brain concentration), the “TC50 (free brain) Tolerability (sLMA)” value is reported as 69.7 nM and the “TC50 in brain, free (sLMA)” value was found to be 69.7 nM. Further, in the data set with male CD-1 mice (free plasma concentration), the “TC50 in plasma, free (sLMA)” value came out at 308.9 nM. Besides, the “TC50 in brain (sLMA)” value with male CD-1 mice (total brain concentration) is reported as 1899 ng/g. Besides, the “TC50 in plasma (sLMA)” value with male CD-1 mice (total plasma concentration) amounted to 1.553 µg/mL (≈ 3.81 µM). Moreover, in the data set with healthy participants [6] (Part A), the “TEAEs mild or moderate” value is on record as 100% and the “TEAEs moderate in severity” value was 29%. In the data set with healthy participants [6] (Part A, 90 mg), the “tolerability in healthy adults” value is “well tolerated”. The “TEAEs mild in severity” value in the data set with healthy participants [6] (Part A, 90 mg QD 28 days vs placebo, 35 TEAEs across 13 participants) was found to be 71%. Besides, the “review of ALT/AST increases and rhabdomyolysis” value in the data set with healthy participants [6] (Part B) was “did not identify a causal association”. The EC50 in “in vivo” (plasma (free concentration), oral) is 309 nM. Also, in [7] (90 mg single dose), the “increase in AUC, fed vs fasted” value came to 14% and the “increase in Cmax, fed vs fasted” value is 9%. Further, in data set [7] (oral, 90 mg, 90 mg single dose, fasted, read-out: tmax, fasted state), the Tmax worked out at 2.5 h. Moreover, the Tmax in [7] (oral, 90 mg, 90 mg single dose, fed, read-out: tmax, fed state) stood at 4 h. Also, the Tmax in data set [7] (po, healthy adults, read-out: time to observed maximum concentration (tmax)) was in the range of 2 to 3 h. Further, in data set [7] (over the evaluated dose range), the exposure vs dose entry is on record as “increased dose proportionally”.
On to `NC(=O)N1c2ccccc2CC(O)c2ccccc21` (stereo not shown) [10-Hydroxycarbamezapine], for which the “exposure when administered concomitantly with Compound 1 vs alone” value in [8] is reported as “similar”.
In the case of `NC(=O)N1c2ccccc2CC(=O)c2ccccc21` [Oxcarbazepine, reference compound], in data set [8], the “exposure when administered concomitantly with Compound 1 vs alone” value was “similar”. Also, in the data set with healthy participants [6] (Part B, per arm), the “patients in whom TEAEs were observed” value is listed as 75%.
Turning to `Nc1nnc(-c2cccc(Cl)c2Cl)c(N)n1` [Lamotrigine], the “mice protected from MES-induced tonic hindlimb seizures” value in data set [1] (10 mg/kg) is listed as “eight of 12”. The same molecule had a concentration giving a half-maximal response (EC50) in “in vivo” (in vivo) of 20500 nM. Besides, the “use-dependent block of peak INa (in words)” value on human NaV1.6 (stimulation frequency 10 Hz) is “not observed”.
Turning to `NC(=O)O[C@@H](Cn1ncnn1)c1ccccc1Cl` [Cenobamate], the “Ratio to Peak INa (TB) (TB / UDB-10 Hz)” value on human NaV1.6 is recorded as 2.3.

In general, EC50 refers to the concentration that produces a half-maximal response. A low value points to an effect from little substance. The term half-life denotes how long it takes for the measured level to halve. High values mean slow decline, low ones rapid decline.
